From patent publication US6087119A, “Method for determining the catalytic activity of factor IXa” (Roche Diagnostics GmbH, priority 1996, dated 2000)
Where two headings read alike, the source gives them in different places.

Tests used:
native FIXa (human) = native FIXa (human) (Homo sapiens, UniProt P00740); details: MeSO2-D-HHT-Gly-Arg-pNA
Text: Influence of the pH on the Activity of rFIXa and Native FIXa in the Presence of Ethylene Glycol
1.02 mmol/l MeSO2 -D-HHT-Gly-Arg-pNA, MOC-D-Nle-Gly-Arg-pNA or MeSO2 -D-CHG-Gly-Arg-pNA
0.14 μmol/l native FIXa (human)

rFIXa (human) = rFIXa (human) (Homo sapiens, UniProt P00740); assay: Influence of the pH on the activity of rFIXa in the presence of ethylene glycol; type: biochemical; parameters: coding for the FIX protease domain from amino acid position 181 to 415; Met (ATG start codon) (N); made in house; details: 25% ethylene glycol; for increase of cleavage rates: pH 7.0-10.0; for cleavage rate mA/min: rFIXa (human)
rFIXa (human), sequence (P00740 227-461): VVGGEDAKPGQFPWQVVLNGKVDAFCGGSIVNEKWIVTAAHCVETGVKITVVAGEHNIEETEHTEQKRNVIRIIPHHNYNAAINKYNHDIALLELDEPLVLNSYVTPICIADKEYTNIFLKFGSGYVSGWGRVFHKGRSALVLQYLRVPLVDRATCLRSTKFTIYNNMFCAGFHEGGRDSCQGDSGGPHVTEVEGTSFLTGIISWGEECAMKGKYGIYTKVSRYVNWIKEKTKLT
rFIXa (human), sequence (P00740 131-226): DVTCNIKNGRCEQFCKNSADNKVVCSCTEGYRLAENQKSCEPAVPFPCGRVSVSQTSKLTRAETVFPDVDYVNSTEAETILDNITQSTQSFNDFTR
Text: 0.28 μmol/l rFIXa (human)

native FIXa (human), sequence (P00740 227-461 limits assumed): as the sequence (P00740 227-461) above
native FIXa (human), sequence (P00740 47-191 partner limits assumed): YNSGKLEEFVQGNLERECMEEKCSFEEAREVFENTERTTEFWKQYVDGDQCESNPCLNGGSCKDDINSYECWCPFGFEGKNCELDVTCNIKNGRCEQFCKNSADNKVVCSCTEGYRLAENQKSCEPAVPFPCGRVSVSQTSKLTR

## OCCO [Ethylene glycol]
Native FIXa (human); pH 7.0, 25% ethylene glycol
  cleavage rate mA/min: 23.7 mA/min
Native FIXa (human); pH 7.5, 25% ethylene glycol
  cleavage rate mA/min: 63.0 mA/min
Native FIXa (human); pH 8.0, 25% ethylene glycol
  cleavage rate mA/min: 101.0 mA/min
Native FIXa (human); pH 8.25, 25% ethylene glycol
  cleavage rate mA/min: 106.7 mA/min
Native FIXa (human); pH 8.5, 25% ethylene glycol
  cleavage rate mA/min: 115.4 mA/min
Native FIXa (human); pH 8.75, 25% ethylene glycol
  cleavage rate mA/min: 110.9 mA/min
Native FIXa (human); pH 9.0, 25% ethylene glycol
  cleavage rate mA/min: 105.6 mA/min
Native FIXa (human); pH 9.5, 25% ethylene glycol
  cleavage rate mA/min: 100.6 mA/min
Native FIXa (human); pH 10.0, 25% ethylene glycol
  cleavage rate mA/min: 77.2 mA/min
rFIXa (human); substrate MOC-D-Nle-Gly-Arg-pNA
  increase of cleavage rates: 14 fold
rFIXa (human); substrate MeSO2-D-CHG-Gly-Arg-pNA
  increase of cleavage rates: 20 fold
rFIXa (human); substrate MeSO2-D-HHT-Gly-Arg-pNA
  increase of cleavage rates: 10 fold
rFIXa (human); pH 7.0, MOC-D-Nle-Gly-Arg-pNA
  cleavage rate mA/min: 31.5 mA/min
rFIXa (human); pH 7.0, MeSO2-D-CHG-Gly-Arg-pNA
  cleavage rate mA/min: 154.7 mA/min
rFIXa (human); pH 7.0, MeSO2-D-HHT-Gly-Arg-pNA
  cleavage rate mA/min: 56.5 mA/min
rFIXa (human); pH 7.5, MOC-D-Nle-Gly-Arg-pNA
  cleavage rate mA/min: 70.1 mA/min
rFIXa (human); pH 7.5, MeSO2-D-CHG-Gly-Arg-pNA
  cleavage rate mA/min: 289.8 mA/min
rFIXa (human); pH 7.5, MeSO2-D-HHT-Gly-Arg-pNA
  cleavage rate mA/min: 124.5 mA/min
rFIXa (human); pH 8.0, MOC-D-Nle-Gly-Arg-pNA
  cleavage rate mA/min: 99.7 mA/min
rFIXa (human); pH 8.0, MeSO2-D-CHG-Gly-Arg-pNA
  cleavage rate mA/min: 372.4 mA/min
rFIXa (human); pH 8.0, MeSO2-D-HHT-Gly-Arg-pNA
  cleavage rate mA/min: 173.6 mA/min
rFIXa (human); pH 8.25, MOC-D-Nle-Gly-Arg-pNA
  cleavage rate mA/min: 102.7 mA/min
rFIXa (human); pH 8.25, MeSO2-D-CHG-Gly-Arg-pNA
  cleavage rate mA/min: 382.2 mA/min
rFIXa (human); pH 8.25, MeSO2-D-HHT-Gly-Arg-pNA
  cleavage rate mA/min: 176.0 mA/min
rFIXa (human); pH 8.5, MOC-D-Nle-Gly-Arg-pNA
  cleavage rate mA/min: 104.3 mA/min
rFIXa (human); pH 8.5, MeSO2-D-CHG-Gly-Arg-pNA
  cleavage rate mA/min: 389.8 mA/min
rFIXa (human); pH 8.5, MeSO2-D-HHT-Gly-Arg-pNA
  cleavage rate mA/min: 182.1 mA/min
rFIXa (human); pH 8.75, MOC-D-Nle-Gly-Arg-pNA
  cleavage rate mA/min: 101.6 mA/min
rFIXa (human); pH 8.75, MeSO2-D-CHG-Gly-Arg-pNA
  cleavage rate mA/min: 395.6 mA/min
rFIXa (human); pH 8.75, MeSO2-D-HHT-Gly-Arg-pNA
  cleavage rate mA/min: 170.7 mA/min
rFIXa (human); pH 9.0, MOC-D-Nle-Gly-Arg-pNA
  cleavage rate mA/min: 97.3 mA/min
rFIXa (human); pH 9.0, MeSO2-D-CHG-Gly-Arg-pNA
  cleavage rate mA/min: 373.3 mA/min
rFIXa (human); pH 9.0, MeSO2-D-HHT-Gly-Arg-pNA
  cleavage rate mA/min: 164.1 mA/min
rFIXa (human); pH 9.5, MOC-D-Nle-Gly-Arg-pNA
  cleavage rate mA/min: 70.7 mA/min
rFIXa (human); pH 9.5, MeSO2-D-CHG-Gly-Arg-pNA
  cleavage rate mA/min: 255.6 mA/min
rFIXa (human); pH 9.5, MeSO2-D-HHT-Gly-Arg-pNA
  cleavage rate mA/min: 112.0 mA/min
rFIXa (human); pH 10.0, MOC-D-Nle-Gly-Arg-pNA
  cleavage rate mA/min: 68.3 mA/min
rFIXa (human); pH 10.0, MeSO2-D-CHG-Gly-Arg-pNA
  cleavage rate mA/min: 244.5 mA/min
rFIXa (human); pH 10.0, MeSO2-D-HHT-Gly-Arg-pNA
  cleavage rate mA/min: 110.1 mA/min
